This passage reports Ratio IC50 and IC50 results from ChEMBL document CHEMBL1156142, “COX, LOX and platelet aggregation inhibitory properties of Lauraceae neolignans” (Bioorg Med Chem Lett, 2009).

Each structure is given as a SMILES string.

One assay is filed under the species Ovis aries. The experiment in a line: Selectivity ratio of IC50 for ovine COX-1 to IC50 for ovine COX-2.
The nature of assay [1]: Antiplatelet activity in rabbit platelets assessed as inhibition of adenosin 5'-diphosphate-induced platelet aggregation. To be noted: Oryctolagus cuniculus. In kind it is functional, cell-based.
Assay [2] is described as follows: Antiplatelet activity in rabbit platelets assessed as inhibition of arachidonic acid-induced platelet aggregation. It counts as functional, cell-based, Oryctolagus cuniculus.
Assay [3] in a line: Inhibition of potato LOX-5 assessed as inhibition of hydroperoxide production after 5 mins by EIA. Details: species or system Solanum tuberosum.
Assay [4] deals with T1, Prostaglandin G/H synthase 1 (Ovis aries, UniProt P05979).
T1 sequence (P05979 whole entry): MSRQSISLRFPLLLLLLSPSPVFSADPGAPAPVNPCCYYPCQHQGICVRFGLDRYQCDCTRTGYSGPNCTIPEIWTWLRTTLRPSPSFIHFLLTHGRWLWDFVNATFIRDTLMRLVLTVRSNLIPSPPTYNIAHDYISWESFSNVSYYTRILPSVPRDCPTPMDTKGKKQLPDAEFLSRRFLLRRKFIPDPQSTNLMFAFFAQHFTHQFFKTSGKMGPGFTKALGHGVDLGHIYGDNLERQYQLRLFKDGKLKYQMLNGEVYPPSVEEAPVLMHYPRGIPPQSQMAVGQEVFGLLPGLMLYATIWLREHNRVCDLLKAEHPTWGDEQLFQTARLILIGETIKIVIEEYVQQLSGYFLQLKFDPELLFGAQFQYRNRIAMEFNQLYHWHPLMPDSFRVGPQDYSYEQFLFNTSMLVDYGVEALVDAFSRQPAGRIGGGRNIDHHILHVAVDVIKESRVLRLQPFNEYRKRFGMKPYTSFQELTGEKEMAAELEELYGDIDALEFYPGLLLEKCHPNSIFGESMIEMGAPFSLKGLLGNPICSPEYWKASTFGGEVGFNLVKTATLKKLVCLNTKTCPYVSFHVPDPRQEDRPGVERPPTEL
Description: Inhibition of ovine COX-1 assessed as inhibition of transformation of AA to PGH2 by EIA

Assay [5] is described as follows: Antiplatelet activity in rabbit platelets assessed as inhibition of platelet activating factor-induced platelet aggregation. In kind it is functional, cell-based, Oryctolagus cuniculus.
Setting [6] is: Oryctolagus cuniculus, Platelet.

As to `O=C(O)/C=C/c1ccc(O)c(O)c1`, the Ratio IC50 in the assay filed under Ovis aries turned out to be 3.74.

`C=CCC1=C[C@]2(OC)[C@@H](O)[C@@](OC)(C1=O)[C@@H](c1cc(OC)c(OC)c(OC)c1)[C@@H]2C` (stereo in doubt; 8) [NECTAMAZIN B]: the 50% inhibitory concentration (IC50) (as a rule, the point on the concentration scale where inhibition reaches its midpoint) in assay [1] was over 999 µM; in assay [2] (setting [6]), 68.7 µM; in assay [3], 156 µM; in assay [4] it was 72.2 µM; in assay [5] (setting [6]) it was 1.37 µM.

Take `C=CCC1=C[C@]2(OC)[C@@H](O)[C@@](OC)(C1=O)[C@@H](c1cc(OC)c(OC)c(OC)c1)[C@@H]2C` (stereo in doubt; 9) [NECTAMAZIN B]: the half-maximal inhibitory concentration (IC50) in assay [2] (platelet) was determined as 43.4 µM; in assay [3], 42.4 µM; in assay [4], 152 µM; in assay [5] (platelet), 1.72 µM.

Take `C=CCC1=C[C@]2(OC)C(=O)C(C1=O)[C@H](c1cc(OC)c(OC)c(OC)c1)[C@H]2C` [4'-OXO-MACROPHYLLIN B]: the IC50 was found to be 521 µM in assay [1]; 78.9 µM in assay [2] (setting [6]); 92.5 µM in assay [3]; 356 µM in assay [4]; 7.47 µM in assay [5] (setting [6]).

With `C=CCC1=C[C@]2(OC)C(=CC1=O)O[C@@H](c1ccc(OC)c(OC)c1)[C@H]2C` [(+)-DENUDATIN B], the IC50 was 148 µM in assay [1]; 58.3 µM in assay [2] (setting [6]); 0.199 µM in assay [3]; 88.6 µM in assay [4]; 75.6 µM in assay [5] (setting [6]). Further, the Ratio IC50 in the assay filed under Ovis aries turned out to be 15.6.

With `C/C=C/c1cc(OC)c2c(c1)[C@H](C)[C@@H](c1ccc3c(c1)OCO3)O2` [(-)-LICARIN B], the 50% inhibitory concentration (IC50) in assay [1] was 54.6 µM; in assay [2] (setting [6]), 290 µM; in assay [3], 14.3 µM; in assay [4], 366 µM; in assay [5] (setting [6]) it was 488 µM. Moreover, in the assay filed under Ovis aries, the Ratio IC50 turned out to be 426.

On to `C/C=C/c1cc(OC)c2c(c1)[C@@H](C)[C@H](c1ccc(OC)c(OC)c1)O2` [ACUMINATIN], for which the half-inhibitory concentration (IC50) in assay [1] was 75.6 µM; in assay [2] (setting [6]), 222 µM; in assay [3], 7.75 µM; in assay [4], 223 µM; in assay [5] (setting [6]), 65.3 µM. For the same compound, the Ratio IC50 in the assay filed under Ovis aries was found to be 146.

With `CC(=O)Oc1ccccc1C(=O)O` [ASPIRIN], the IC50 in assay [1] was 545 µM; in assay [2] (setting [6]), 5.33 µM; in assay [3], 0.162 µM; in assay [5] (setting [6]), 10.3 µM.

As to `Cc1ccc(-c2cc(C(F)(F)F)nn2-c2ccc(S(N)(=O)=O)cc2)cc1` [CELECOXIB], the IC50 in assay [3] was 73.4 µM.

On to `C=CCC1=C[C@]2(OC)C(=O)[C@@](OC)(C1=O)[C@H](c1cc(OC)c3c(c1)OCO3)[C@H]2C` [CINERIN A], for which the IC50 in assay [1] was 88.9 µM; in assay [2] (setting [6]), 75.6 µM; in assay [3], 45.6 µM; in assay [4], 165 µM.

On to `C=CCC1=C[C@@]2(OC)[C@H](C)[C@@H](c3cc(OC)c4c(c3)OCO4)[C@H](C1=O)[C@@H]2O` [CINERIN B], for which the IC50 in assay [1] is over 999 µM; in assay [2] (setting [6]) it was 42.8 µM; in assay [3] it was 146 µM; in assay [4], 32.5 µM; in assay [5] (setting [6]), 1.51 µM.

As to `C=CCC1=C[C@]2(OC)[C@H](C)[C@@H](c3cc(OC)c4c(c3)OCO4)[C@](OC)(C1=O)[C@H]2O` [CINERIN C], the concentration for half-maximal inhibition (IC50) in assay [1] is over 999 µM; in assay [2] (setting [6]) it was 85.8 µM; in assay [3], 136 µM; in assay [4], 28.3 µM; in assay [5] (setting [6]) it was 1.09 µM.

Regarding `C=CCC1=C[C@@]2(OC)C(=O)[C@](OC)([C@H](c3cc(OC)c4c(c3)OCO4)[C@H]2C)[C@H]1O` [CINERIN D], the concentration for half-maximal inhibition (IC50) was 25.6 µM in assay [2] (setting [6]), 8.84 µM in assay [3], 188 µM in assay [4] and 6.63 µM in assay [5] (setting [6]).

In the case of `C[C@@H]1C(=O)O[C@H]2[C@H](O)[C@@]34[C@H]5C[C@@H](C(C)(C)C)[C@]36[C@@H](OC(=O)[C@@H]6O)O[C@@]4(C(=O)O5)[C@@]12O` [GINKOLIDE B], the IC50 in assay [1] was over 999 µM; in assay [2] (setting [6]), 75.6 µM; in assay [5] (setting [6]), 0.925 µM.

`C=CCC1=C[C@@]2(OC)[C@H](C)[C@@H](c3ccc(OC)c(OC)c3)[C@H](C1=O)[C@@H]2O` [KADSURENIN C]: the IC50 in assay [1] was over 999 µM; in assay [2] (setting [6]), 54.6 µM; in assay [3], 117 µM; in assay [4] it was 38.7 µM; in assay [5] (setting [6]), 2.33 µM.

Turning to `C=CCC1=C[C@@]2(OC)C(=CC1=O)O[C@H](c1ccc(OC)c(OC)c1)[C@H]2C` [KADSURENONE], the 50% inhibitory concentration (IC50) in assay [1] amounted to 38.1 µM; in assay [2] (setting [6]), 5.61 µM; in assay [3] it was 0.104 µM; in assay [4], 25.6 µM; in assay [5] (setting [6]) it was 0.153 µM. Further, the Ratio IC50 in the assay filed under Ovis aries turned out to be 12.6.

For the compound `C/C=C/c1cc(OC)c2c(c1)[C@H](C)[C@@H](c1ccc(O)c(OC)c1)O2` [LICARIN A], the 50% inhibitory concentration (IC50) in assay [1] was 112 µM; in assay [2] (setting [6]), 489 µM; in assay [3], 9.73 µM; in assay [4], 312 µM; in assay [5] (setting [6]), over 999 µM. Besides, the Ratio IC50 in the assay filed under Ovis aries was found to be 35.5.

Regarding `C/C=C/c1cc(OC)c2c(c1)[C@@H](C)[C@H](c1ccc(O)c(OC)c1)O2` [LICARINE A], the IC50 in assay [1] is 165 µM; in assay [2] (setting [6]), 556 µM; in assay [3], 3.69 µM; in assay [4] it was 245 µM; in assay [5] (setting [6]), over 999 µM. In addition, in the assay listed under Ovis aries, the Ratio IC50 amounted to 12.5.

For the compound `C/C=C/c1cc(OC)c2c(c1)[C@@H](C)[C@H](c1ccc3c(c1)OCO3)O2` [LICARINE B], the 50% inhibitory concentration (IC50) in assay [1] came to 56.7 µM; in assay [2] (setting [6]) it was 326 µM; in assay [3], 5.55 µM; in assay [4] it was 289 µM; in assay [5] (setting [6]), 565 µM. Besides, the Ratio IC50 in the assay filed under Ovis aries is 157.

Take `C=CCc1cc2c(cc1O)O[C@H](c1ccc3c(c1)OCO3)[C@H]2C` [LILIFLOL A]: the IC50 in assay [1] came out at 124 µM; in assay [2] (setting [6]), 145 µM; in assay [3], 1.81 µM; in assay [4] it was 179 µM; in assay [5] (setting [6]), 18.4 µM. The Ratio IC50 in the assay listed under Ovis aries worked out at 10.2.

As for `C=CCC1=C[C@]2(OC)C(=O)C([C@@H]1O)[C@H](c1cc(OC)c(OC)c(OC)c1)[C@H]2C` [MACROPHYLLIN B], the half-inhibitory concentration (IC50) in assay [1] came out at 121 µM; in assay [2] (setting [6]), 23.2 µM; in assay [3], 18.9 µM; in assay [4], 216 µM; in assay [5] (setting [6]), 6.79 µM.

Regarding `C=CCC1=C[C@@]2(OC)C(=CC1=O)O[C@H](c1cc(OC)c(OC)c(OC)c1)[C@H]2C` [MIRANDIN A], the 50% inhibitory concentration (IC50) in assay [2] (setting [6]) was determined as 38.7 µM; in assay [3], 0.62 µM; in assay [4], 77.9 µM; in assay [5] (setting [6]) it was 3.28 µM.

On to `C=CCC1=C[C@@]2(OC)[C@@H](C)[C@H](c3cc(OC)c(OC)c(OC)c3)[C@](OC)([C@H]1O)[C@H]2O` [NECTAMAZIN C], for which the IC50 in assay [1] is over 999 µM; in assay [2] (setting [6]), 21.6 µM; in assay [3], 12.8 µM; in assay [4], 74.6 µM; in assay [5] (setting [6]), 3.78 µM.

Consider `C=CCc1cc(OC)c2oc(-c3ccc4c(c3)OCO4)cc2c1` [NEOLIGNAN 9-NOR-7,8-DEHYDRO-ISOLICARIN B], for which the IC50 in assay [1] is over 999 µM; in assay [2] (setting [6]), 426 µM; in assay [3], 106 µM; in assay [4], 349 µM; in assay [5] (setting [6]) it was 460 µM. In the assay filed under Ovis aries, the Ratio IC50 was determined as 329.

On to `COc1cc(C=O)cc2c(C)c(-c3ccc4c(c3)OCO4)oc12` [OCOPHYLLALS A], for which the half-inhibitory concentration (IC50) in assay [1] was 102 µM; in assay [2] (setting [6]) it was 568 µM; in assay [3], 7.31 µM; in assay [4], 123 µM; in assay [5] (setting [6]) it was over 999 µM. Moreover, in the assay listed under Ovis aries, the Ratio IC50 was found to be 436.

Take `COc1cc(-c2oc3c(OC)cc(C=O)cc3c2C)cc(OC)c1OC` [OCOPHYLLALS B]: the IC50 turned out to be 98.3 µM in assay [1]; 425 µM in assay [2] (setting [6]); 8.02 µM in assay [3]; 102 µM in assay [4]; 847 µM in assay [5] (setting [6]). Also, the Ratio IC50 in the assay filed under Ovis aries is 412.

Consider `C=CCC1=C[C@@]2(OC)[C@H](C)[C@@H](c3ccc4c(c3)OCO4)[C@H](C1=O)[C@H]2O` [OCOPHYLOL A], for which the half-maximal inhibitory concentration (IC50) worked out at 636 µM in assay [1]; 45.6 µM in assay [2] (setting [6]); 256 µM in assay [3]; 88.6 µM in assay [4]; 3.08 µM in assay [5] (setting [6]).

Turning to `C=CCC1=C[C@@]2(OC)[C@H](C)[C@@H](c3ccc(OC)c(OC)c3)[C@H](C1=O)[C@H]2O` [OCOPHYLOL B], the half-maximal inhibitory concentration (IC50) in assay [1] amounted to 725 µM; in assay [2] (setting [6]), 38.8 µM; in assay [3] it was 189 µM; in assay [4], 94.9 µM; in assay [5] (setting [6]), 3.03 µM.

For `C=CCC1=C[C@@]2(OC)[C@H](C)[C@@H](c3cc(OC)c(OC)c(OC)c3)[C@H](C1=O)[C@H]2O` [OCOPHYLOL C], the IC50 in assay [1] was over 999 µM; in assay [2] (setting [6]), 48.6 µM; in assay [3] it was 176 µM; in assay [4] it was 72.1 µM; in assay [5] (setting [6]), 2.34 µM.
